Structures are written as SMILES.

The first data set can be described thus: The drug is tested on Clostridium scindens strain: ATCC35704 for biotransformation. The drug concentrations were measured before and after a 12-h incubation by liquid-chromatography-coupled mass spectrometry (LC–MS). Conditions: 2 µM.
With `O=C1N=C([O-])NC1(c1ccccc1)c1ccccc1.[Na+]` [PHENYTOIN SODIUM], the “Bacterial Biotransformation” value is listed as “Compound NOT metabolized”.
Consider `COc1ccc(C(CN(C)C)C2(O)CCCCC2)cc1` (stereo not drawn) [VENLAFAXINE], for which the “Bacterial Biotransformation” value is “Compound NOT metabolized”.

For the next data set the following is noted: bacteroides thetaiotaomicron, 12 h, 2 µM.
Description: The drug is tested on Bacteroides thetaiotaomicron strain: VPI-5482 for biotransformation. The drug concentrations were measured before and after a 12-h incubation by liquid-chromatography-coupled mass spectrometry (LC–MS)
`O=C1N=C([O-])NC1(c1ccccc1)c1ccccc1.[Na+]` [PHENYTOIN SODIUM]: the “Bacterial Biotransformation” value is recorded as “Compound NOT metabolized”.
Turning to `COc1ccc(C(CN(C)C)C2(O)CCCCC2)cc1` (stereo not drawn) [VENLAFAXINE], the “Bacterial Biotransformation” value is on record as “Compound NOT metabolized”.

Another data set is described as follows: The drug is tested on Bacteroides cellulosilyticus strain: DSM14838 for biotransformation. The drug concentrations were measured before and after a 12-h incubation by liquid-chromatography-coupled mass spectrometry (LC–MS). The settings on record: 2 µM.
On to `O=C1N=C([O-])NC1(c1ccccc1)c1ccccc1.[Na+]` [PHENYTOIN SODIUM], for which the “Bacterial Biotransformation” value is listed as “Compound metabolized”.

The next data set can be described thus: The drug is tested on Eubacterium rectale strain: ATCC33656 for biotransformation. The drug concentrations were measured before and after a 12-h incubation by liquid-chromatography-coupled mass spectrometry (LC–MS). Conditions: agathobacter rectalis, 2 µM.
Turning to `COc1ccc(C(CN(C)C)C2(O)CCCCC2)cc1` (stereo not drawn) [VENLAFAXINE], the “Bacterial Biotransformation” value is on record as “Compound NOT metabolized”.

A further data set can be described thus: The drug is tested on Bacteroides ovatus strain: ATCC8483 for biotransformation. The drug concentrations were measured before and after a 12-h incubation by liquid-chromatography-coupled mass spectrometry (LC–MS). The settings on record: 2 µM.
Regarding `O=C1N=C([O-])NC1(c1ccccc1)c1ccccc1.[Na+]` [PHENYTOIN SODIUM], the “Bacterial Biotransformation” value is given as “Compound metabolized”.
For `COc1ccc(C(CN(C)C)C2(O)CCCCC2)cc1` (stereo not drawn) [VENLAFAXINE], the “Bacterial Biotransformation” value is “Compound NOT metabolized”.

For another data set the following is noted: parabacteroides distasonis, 12 h, 2 µM.
Description: The drug is tested on Parabacteroides distasonis strain: ATCC8503 for biotransformation. The drug concentrations were measured before and after a 12-h incubation by liquid-chromatography-coupled mass spectrometry (LC–MS)
Regarding `O=C1N=C([O-])NC1(c1ccccc1)c1ccccc1.[Na+]` [PHENYTOIN SODIUM], the “Bacterial Biotransformation” value is on record as “Compound metabolized”.
With `COc1ccc(C(CN(C)C)C2(O)CCCCC2)cc1` (stereo not drawn) [VENLAFAXINE], the “Bacterial Biotransformation” value is on record as “Compound NOT metabolized”.

A short description of a further data set: The drug is tested on Clostridium sp. strain: fecal isolate for biotransformation. The drug concentrations were measured before and after a 12-h incubation by liquid-chromatography-coupled mass spectrometry (LC–MS). The settings on record: 2 µM.
Regarding `COc1ccc(C(CN(C)C)C2(O)CCCCC2)cc1` (stereo not drawn) [VENLAFAXINE], the “Bacterial Biotransformation” value is recorded as “Compound NOT metabolized”.

A further data set is described as follows: The drug is tested on Enterobacter cancerogenus strain: ATCC35316 for biotransformation. The drug concentrations were measured before and after a 12-h incubation by liquid-chromatography-coupled mass spectrometry (LC–MS). Conditions: 2 µM.
Turning to `COc1ccc(C(CN(C)C)C2(O)CCCCC2)cc1` (stereo not drawn) [VENLAFAXINE], the “Bacterial Biotransformation” value is reported as “Compound NOT metabolized”.

The next data set can be described thus: The drug is tested on Bifidobacterium breve strain: DSM20213 for biotransformation. The drug concentrations were measured before and after a 12-h incubation by liquid-chromatography-coupled mass spectrometry (LC–MS). The settings on record: 2 µM.
With `O=C1N=C([O-])NC1(c1ccccc1)c1ccccc1.[Na+]` [PHENYTOIN SODIUM], the “Bacterial Biotransformation” value is recorded as “Compound NOT metabolized”.
For the molecule `COc1ccc(C(CN(C)C)C2(O)CCCCC2)cc1` (stereo not drawn) [VENLAFAXINE], the “Bacterial Biotransformation” value is given as “Compound NOT metabolized”.

For a further data set the following is noted: bacteroides thetaiotaomicron, 12 h, 2 µM. The source holds these as a separate data set.
Description: The drug is tested on Bacteroides thetaiotaomicron strain: 3731 for biotransformation. The drug concentrations were measured before and after a 12-h incubation by liquid-chromatography-coupled mass spectrometry (LC–MS)
Consider `O=C1N=C([O-])NC1(c1ccccc1)c1ccccc1.[Na+]` [PHENYTOIN SODIUM], for which the “Bacterial Biotransformation” value is on record as “Compound NOT metabolized”.
For `COc1ccc(C(CN(C)C)C2(O)CCCCC2)cc1` (stereo not drawn) [VENLAFAXINE], the “Bacterial Biotransformation” value is recorded as “Compound NOT metabolized”.

For another data set the following is noted: bacteroides fragilis, 12 h, 2 µM.
Description: The drug is tested on Bacteroides fragilis strain: DS-208 for biotransformation. The drug concentrations were measured before and after a 12-h incubation by liquid-chromatography-coupled mass spectrometry (LC–MS)
Turning to `O=C1N=C([O-])NC1(c1ccccc1)c1ccccc1.[Na+]` [PHENYTOIN SODIUM], the “Bacterial Biotransformation” value was “Compound NOT metabolized”.
For the molecule `COc1ccc(C(CN(C)C)C2(O)CCCCC2)cc1` (stereo not drawn) [VENLAFAXINE], the “Bacterial Biotransformation” value is reported as “Compound NOT metabolized”.

Another data set can be described thus: The drug is tested on Blautia luti strain: DSM14534 for biotransformation. The drug concentrations were measured before and after a 12-h incubation by liquid-chromatography-coupled mass spectrometry (LC–MS). In kind it is ADME. The arrangement: dose 2 uM, timepoint 0 vs 12 hours. Conditions: 2 µM.
`COc1ccc(C(CN(C)C)C2(O)CCCCC2)cc1` (stereo not drawn) [VENLAFAXINE]: the “Bacterial Biotransformation” value is recorded as “Compound NOT metabolized”.

Another data set in a line: The drug is tested on Bacteroides fragilis strain: ATCC43859 for biotransformation. The drug concentrations were measured before and after a 12-h incubation by liquid-chromatography-coupled mass spectrometry (LC–MS). Conditions: 2 µM.
On to `COc1ccc(C(CN(C)C)C2(O)CCCCC2)cc1` (stereo not drawn) [VENLAFAXINE], for which the “Bacterial Biotransformation” value is given as “Compound NOT metabolized”.

Another data set is described as follows: The drug is tested on Subdoligranulum variabile strain: DSM15176 for biotransformation. The drug concentrations were measured before and after a 12-h incubation by liquid-chromatography-coupled mass spectrometry (LC–MS). The settings on record: 2 µM.
Consider `O=C1N=C([O-])NC1(c1ccccc1)c1ccccc1.[Na+]` [PHENYTOIN SODIUM], for which the “Bacterial Biotransformation” value is on record as “Compound NOT metabolized”.
On to `COc1ccc(C(CN(C)C)C2(O)CCCCC2)cc1` (stereo not drawn) [VENLAFAXINE], for which the “Bacterial Biotransformation” value is listed as “Compound NOT metabolized”.

A further data set in a line: The drug is tested on Escherichia coli strain: BW25113 for biotransformation. The drug concentrations were measured before and after a 12-h incubation by liquid-chromatography-coupled mass spectrometry (LC–MS). Conditions: 2 µM.
`O=C1N=C([O-])NC1(c1ccccc1)c1ccccc1.[Na+]` [PHENYTOIN SODIUM]: the “Bacterial Biotransformation” value is listed as “Compound NOT metabolized”.
Turning to `COc1ccc(C(CN(C)C)C2(O)CCCCC2)cc1` (stereo not drawn) [VENLAFAXINE], the “Bacterial Biotransformation” value is “Compound NOT metabolized”.

A further data set in a line: The drug is tested on Eubacterium hallii strain: DSM3353 for biotransformation. The drug concentrations were measured before and after a 12-h incubation by liquid-chromatography-coupled mass spectrometry (LC–MS). Conditions: anaerobutyricum hallii, 2 µM.
Turning to `O=C1N=C([O-])NC1(c1ccccc1)c1ccccc1.[Na+]` [PHENYTOIN SODIUM], the “Bacterial Biotransformation” value is listed as “Compound NOT metabolized”.
On to `COc1ccc(C(CN(C)C)C2(O)CCCCC2)cc1` (stereo not drawn) [VENLAFAXINE], for which the “Bacterial Biotransformation” value is recorded as “Compound NOT metabolized”.

The next data set can be described thus: The drug is tested on Clostridium symbiosum strain: ATCC14940 for biotransformation. The drug concentrations were measured before and after a 12-h incubation by liquid-chromatography-coupled mass spectrometry (LC–MS). The settings on record: 2 µM.
Turning to `O=C1N=C([O-])NC1(c1ccccc1)c1ccccc1.[Na+]` [PHENYTOIN SODIUM], the “Bacterial Biotransformation” value was “Compound metabolized”.
As to `COc1ccc(C(CN(C)C)C2(O)CCCCC2)cc1` (stereo not drawn) [VENLAFAXINE], the “Bacterial Biotransformation” value was “Compound NOT metabolized”.

The nature of a further data set: The drug is tested on Bacteroides finegoldii strain: DSM17565 for biotransformation. The drug concentrations were measured before and after a 12-h incubation by liquid-chromatography-coupled mass spectrometry (LC–MS). The settings on record: 2 µM.
For `O=C1N=C([O-])NC1(c1ccccc1)c1ccccc1.[Na+]` [PHENYTOIN SODIUM], the “Bacterial Biotransformation” value is “Compound NOT metabolized”.
As to `COc1ccc(C(CN(C)C)C2(O)CCCCC2)cc1` (stereo not drawn) [VENLAFAXINE], the “Bacterial Biotransformation” value is “Compound NOT metabolized”.

For the next data set the following is noted: bacteroides fragilis, 12 h, 2 µM. The source holds these as a separate data set.
Description: The drug is tested on Bacteroides fragilis strain: NCTC 9343 for biotransformation. The drug concentrations were measured before and after a 12-h incubation by liquid-chromatography-coupled mass spectrometry (LC–MS)
Regarding `O=C1N=C([O-])NC1(c1ccccc1)c1ccccc1.[Na+]` [PHENYTOIN SODIUM], the “Bacterial Biotransformation” value was “Compound metabolized”.
Regarding `COc1ccc(C(CN(C)C)C2(O)CCCCC2)cc1` (stereo not drawn) [VENLAFAXINE], the “Bacterial Biotransformation” value is “Compound NOT metabolized”.

The next data set can be described thus: The drug is tested on Bacteroides caccae strain: ATCC43185 for biotransformation. The drug concentrations were measured before and after a 12-h incubation by liquid-chromatography-coupled mass spectrometry (LC–MS). Conditions: 2 µM.
For `COc1ccc(C(CN(C)C)C2(O)CCCCC2)cc1` (stereo not drawn) [VENLAFAXINE], the “Bacterial Biotransformation” value is “Compound NOT metabolized”.

These data come from ChEMBL document CHEMBL5303573, “Mapping human microbiome drug metabolism by gut bacteria and their genes” (Nature, 2019).
